The values that follow come from ChEMBL document CHEMBL1201862, “PubChem BioAssay data set” (2004).

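A five-concentration, 48-hour dose response in 96-well plates underlies each endpoint, interpolated linearly between surrounding concentrations. At the GI50, growth is halved.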 Active and inactive are the calls of the source. Rule as the data show it: active = GI50 up to about 1.1 µM and inactive = higher.

Assay in all cases: NCI tumour cell line growth inhibition, 48 h
Assay [1] relates to M14.
The subject of assay [2] is SNB-75.
Assay [3] concerns COLO 205.
For assay [4], the system named is HT-29.
Assay [5] relates to MDA-MB-435.
In assay [6] the test system is SR.
For assay [7], the system named is SK-OV-3.
For assay [8], the system named is HCT-116.
Assay [9] concerns Malme-3M.
Assay [10] deals with NCI-H226.
The test system of assay [11] is SF-268.
Assay [12] concerns CCRF-CEM.
The subject of assay [13] is SF-539.
Assay [14] has as its system DU-145.
For assay [15], the system named is MOLT-4.
For assay [16], the system named is RXF 393.
The subject of assay [17] is SK-MEL-5.
The test system of assay [18] is TK-10.
Assay [19] has as its system ACHN.
The test system of assay [20] is HOP-18.

Take `COc1ccc(N2C(=O)C3c4[nH]c5cc(C)ccc5c4C4CCC(C(C)(C)C)CC4C3C2=O)cc1` (stereo unspecified): the GI50 in assay [1] is > 10 µM (inactive); in assay [2], 2.59 µM (inactive); in assay [3], > 10 µM (inactive); in assay [4] it was > 10 µM (inactive); in assay [5], > 10 µM (inactive); in [6], > 10 µM (inactive). The GI50 in assay [7] is > 10 µM (inactive); in assay [8], > 10 µM (inactive); in assay [9], > 10 µM (inactive); in [10] it was > 10 µM (inactive); in [11] it was 5.75 µM (inactive); in [12], > 10 µM (inactive). Further, the GI50 in assay [13] is 4.19 µM (inactive); in [14], > 10 µM (inactive); in assay [15], > 10 µM (inactive); in assay [16] it was > 10 µM (inactive); in assay [17] it was > 10 µM (inactive); in [18], > 10 µM (inactive). In assay [19], the GI50 was > 10 µM (inactive).

Regarding `CCOC(=O)CNC(=O)N(CC)C12CC3CC(CC(C3)C1)C2`, the GI50 was 131 µM (inactive) in assay [2]; 110 µM (inactive) in assay [3]; 132 µM (inactive) in [4]; 123 µM (inactive) in [7]; 121 µM (inactive) in [8]; 133 µM (inactive) in assay [9]. In addition, the GI50 is 146 µM (inactive) in assay [10]; 143 µM (inactive) in assay [11]; 135 µM (inactive) in [12]; 123 µM (inactive) in assay [13]; 119 µM (inactive) in assay [15]; 179 µM (inactive) in assay [20]. Also, the GI50 is 152 µM (inactive) in [16] and 104 µM (inactive) in [17].

For the compound `O=C1c2cccc3cc4ccccc4c(c23)C(=O)N1CCNCCN1C(=O)c2cccc3cc4ccccc4c(c23)C1=O`, the GI50 in assay [2] is 0.373 µM (active); in [3], 0.731 µM (active); in assay [4], 0.351 µM (active); in assay [7] it was 1.34 µM (inactive); in assay [8], 0.415 µM (active); in assay [9] it was 0.465 µM (active). The GI50 was 2.21 µM (inactive) in assay [10]; 1.22 µM (inactive) in assay [11]; 0.199 µM (active) in [12]; 0.773 µM (active) in [13]; 0.097 µM (active) in [15]; 0.231 µM (active) in assay [20]. Moreover, the results for the GI50 in assay [16] and in assay [17] were 0.525 µM (active) and 0.504 µM (active), respectively.

Take `NC(=S)N/N=C/c1ccc(OC(=O)COc2ccccc2Cl)cn1`: the GI50 was > 54.6 µM (inactive) in assay [2]; 44.6 µM (inactive) in assay [3]; 48 µM (inactive) in assay [4]; > 67 µM (inactive) in [7]; 26.5 µM (inactive) in [8]; 24.4 µM (inactive) in [9]. The GI50 in assay [10] was 26.5 µM (inactive); in [11], 17.9 µM (inactive); in assay [12] it was 6.1 µM (inactive); in assay [13], 14.3 µM (inactive); in [15], 16.3 µM (inactive); in assay [20], 39.3 µM (inactive). Also, the GI50 is > 37.5 µM (inactive) in assay [16] and 24.8 µM (inactive) in assay [17].

As to `O=C1C[C@H](c2ccccc2)C2(C(=O)c3ccccc3C2=O)[C@@H](c2ccccc2)C1`, the GI50 in assay [1] is 6.24 µM (inactive); in assay [2], 28.4 µM (inactive); in assay [3] it was 18.4 µM (inactive); in [4], 26.4 µM (inactive); in assay [5], > 10 µM (inactive); in [6], 92.7 µM (inactive). The GI50 is 21.2 µM (inactive) in assay [7]; 36.7 µM (inactive) in assay [9]; 24.9 µM (inactive) in assay [10]; 9.55 µM (inactive) in [12]; 48.6 µM (inactive) in assay [14]; 8.87 µM (inactive) in [15]. The GI50 in [16] is 6.04 µM (inactive); in [17], 16.9 µM (inactive).

`CSc1sc(=S)sc1SC`: the GI50 in [2] was 46.9 µM (inactive); in [3], > 100 µM (inactive); in assay [4], > 100 µM (inactive); in assay [7] it was > 100 µM (inactive); in assay [8], > 100 µM (inactive); in assay [9] it was > 100 µM (inactive). The GI50 in assay [10], in assay [11], in assay [12], in assay [13], in assay [15] and in assay [20] was > 100 µM (inactive) in each case. For the same compound, the GI50 in [16] and in assay [17] was > 100 µM (inactive) throughout.

With `C=C1C(=O)OC2CC(C)C3C4OC4C(O)C3(C)C(O)C12` (stereo unspecified), the GI50 is 41.7 µM (inactive) in assay [2]; 16.3 µM (inactive) in assay [3]; 27.5 µM (inactive) in [4]; 44.9 µM (inactive) in [7]; 15.6 µM (inactive) in assay [8]; 20.9 µM (inactive) in [9]. The GI50 is 30 µM (inactive) in assay [10]; 23.8 µM (inactive) in assay [11]; 12 µM (inactive) in assay [12]; 17.9 µM (inactive) in assay [13]; 11.9 µM (inactive) in assay [15]; 24.4 µM (inactive) in assay [20]. In addition, the GI50 in assay [16] is 22.1 µM (inactive); in assay [17], 38.5 µM (inactive).

Consider `NC(=O)Nc1cc(O)ccc1/N=N/c1ccc(S(=O)(=O)Nc2ccccn2)cc1`, for which the GI50 in assay [1], in assay [2], in [3], in [4], in [7] and in [8] was > 100 µM (inactive) throughout. Also, the GI50 in [9] was > 100 µM (inactive); in [11], > 100 µM (inactive); in assay [12], > 100 µM (inactive); in [13] it was > 100 µM (inactive); in [15] it was 5.9 µM (inactive); in assay [20] it was > 100 µM (inactive). The GI50 in assay [17], in assay [18] and in assay [19] was > 100 µM (inactive) throughout.

Turning to `CCC1OC(=O)C(C)C(OC2CC(C)(O)C(O)C(C)O2)C(C)C(O)C(C)(O)CC(C)C(=O)C(C)C(O)C1C` (stereo unspecified), the GI50 in assay [2], in [3], in assay [4], in assay [7], in [8] and in [9] was > 300 µM (inactive) throughout. In addition, the GI50 in [10], in [11], in [12], in [13], in assay [15] and in assay [20] was > 300 µM (inactive) throughout. Moreover, the GI50 in [16] and in assay [17] was > 300 µM (inactive) in each case.

As for `COC(=O)C1=CC[C@@H]2C(C(=O)O)=CO[C@@H](OC3OC(CO)C(O)C(O)C3O)[C@H]12` (stereo partly specified), the GI50 in assay [2] is > 300 µM (inactive); in [3] it was > 300 µM (inactive); in [4], > 300 µM (inactive); in assay [7], > 300 µM (inactive); in [8] it was > 300 µM (inactive); in assay [9], > 263 µM (inactive). For the same compound, the GI50 in assay [10] was 299 µM (inactive); in assay [11], > 300 µM (inactive); in assay [12] it was > 119 µM (inactive); in [13], > 300 µM (inactive); in assay [15], > 300 µM (inactive); in assay [20], 13.7 µM (inactive). In addition, the values for the GI50 in assay [16] and in [17] were > 300 µM (inactive) and > 151 µM (inactive), respectively.
